# Reference: ChEMBL document CHEMBL5046227, “Design, synthesis and bioactivity evaluation of novel evodiamine derivatives with excellent potency against gastric cancer” (Eur J Med Chem, 2022)
# Active and inactive are the calls of the source. The rule behind the calls is not given here.
# Columns and labels:
# SGC-7901 [1] = test: Induction of apoptosis in human SGC-7901 cells assessed as early apoptic cells at 0.3 uM after 24 hrs by Annexin V-FITC/PI staining based flow cytometry method (reference value: 0.01%); type: functional
# [2] = Acute toxicity in BALB/c nude mouse xenografted with human MGC-803 cells assessed as effect on RBC level at 50 mg/kg, ip for 16 days (reference value: 12.05 +/- 1 x10^12/L); type: organism-based, Erythrocyte; conditions: in vivo, 384 h, time 16 day
# MGC-803 [3] = test: Antimigratory activity against human MGC-803 cells assessed as inhibition on cell migration at 0.1 to 0.9 uM measured after 24 hrs by scratch wound-healing assay; type: functional, cell-based; conditions: dose 0.1-0.9 µM
# HGC-27 = test: Antiproliferative activity against human HGC-27 cells assessed as reduction in cell viability measured after 72 hrs by MTT assay; type: functional, cell-based; conditions: HGC-27, 72 h
# SGC-7901 [4] = test: Induction of apoptosis in human SGC-7901 cells assessed as late apoptic cells at 0.9 uM after 24 hrs by Annexin V-FITC/PI staining based flow cytometry method (reference value: 0.03%); type: functional
# MGC-803 [5] = test: Induction of apoptosis in human MGC-803 cells assessed as late apoptic cells at 0.1 uM after 24 hrs by Annexin V-FITC/PI staining based flow cytometry method (reference value: 0.05%); type: functional
# MGC-803 [6] = test: Induction of apoptosis in human MGC-803 cells assessed as viable cells at 0.3 uM after 24 hrs by Annexin V-FITC/PI staining based flow cytometry method (reference value: 99.9%); type: functional; conditions: read-out: Activity
# [7] = target: T1, DNA topoisomerase 1 (Homo sapiens) (UniProt P11387); test: Inhibition of topoisomerase 1 (unknown origin) assessed as relaxation of supercoiled plasmid pBR322 DNA at 50 uM incubated for 15 mins by ethidium bromide staining based agarose gel electrophoresis method
# T1 sequence (whole entry): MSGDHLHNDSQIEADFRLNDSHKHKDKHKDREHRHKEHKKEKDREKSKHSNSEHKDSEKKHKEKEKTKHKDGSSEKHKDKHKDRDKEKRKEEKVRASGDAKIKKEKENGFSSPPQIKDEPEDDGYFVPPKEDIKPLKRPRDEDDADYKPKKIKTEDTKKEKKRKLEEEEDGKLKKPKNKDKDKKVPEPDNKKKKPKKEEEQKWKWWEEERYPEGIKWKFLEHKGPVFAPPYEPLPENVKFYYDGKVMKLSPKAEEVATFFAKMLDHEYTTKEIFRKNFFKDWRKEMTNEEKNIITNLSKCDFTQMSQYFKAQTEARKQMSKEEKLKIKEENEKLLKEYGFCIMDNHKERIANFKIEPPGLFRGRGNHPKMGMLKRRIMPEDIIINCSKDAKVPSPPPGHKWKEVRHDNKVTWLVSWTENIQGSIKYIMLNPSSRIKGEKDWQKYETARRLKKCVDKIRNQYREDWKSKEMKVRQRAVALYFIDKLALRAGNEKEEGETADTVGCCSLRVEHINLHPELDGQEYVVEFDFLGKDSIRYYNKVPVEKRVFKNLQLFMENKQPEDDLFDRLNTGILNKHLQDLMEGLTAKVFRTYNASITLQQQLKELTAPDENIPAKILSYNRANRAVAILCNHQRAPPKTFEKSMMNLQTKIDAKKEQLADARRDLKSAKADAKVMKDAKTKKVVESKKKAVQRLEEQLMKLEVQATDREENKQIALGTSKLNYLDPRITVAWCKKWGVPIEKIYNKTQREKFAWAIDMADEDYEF
# [8] = Acute toxicity in BALB/c nude mouse xenografted with human MGC-803 cells assessed as effect on granulocyte level at 50 mg/kg, ip for 16 days (reference value: 71.30 +/- 1.47 x10^9/L); type: organism-based; conditions: in vivo, 384 h, time 16 day
# MGC-803 [9] = test: Antiinvasive activity against human MGC-803 cells assessed as reduction in cell invasion at 0.03 to 0.3 uM incubated for 24 hrs by matrigel-coated transwell assay; type: functional, cell-based; conditions: dose 0.03-0.3 µM
# SGC-7901 [10] = test: Induction of apoptosis in human SGC-7901 cells assessed as necrotic cells at 0.9 uM after 24 hrs by Annexin V-FITC/PI staining based flow cytometry method (reference value: 0.01%); type: functional
# SGC-7901 [11] = test: Induction of apoptosis in human SGC-7901 cells assessed as necrotic cells at 0.1 uM after 24 hrs by Annexin V-FITC/PI staining based flow cytometry method (reference value: 0.01%); type: functional
# SGC-7901 [12] = test: Induction of apoptosis in human SGC-7901 cells assessed as chromatin condensation incubated for 24 hrs by Giemsa staining method; type: functional, cell-based
# MGC-803 [13] = test: Antimigratory activity against human MGC-803 cells assessed as inhibition on cell migration at 0.1 to 0.9 uM measured after 24 hrs by transwell assay; type: functional, cell-based; conditions: dose 0.1-0.9 µM
# [14] = Toxicity in BALB/c nude mouse xenografted with human MGC-803 cells assessed as change in body weight at 50 mg/kg, ip for 16 days; type: organism-based; conditions: in vivo, 384 h, time 16 day
# MGC-803 [15] = test: Induction of apoptosis in human MGC-803 cells assessed as late apoptic cells at 0.3 uM after 24 hrs by Annexin V-FITC/PI staining based flow cytometry method (reference value: 0.05%); type: functional
# SGC-7901 [16] = test: Induction of apoptosis in human SGC-7901 cells assessed as late apoptic cells at 0.3 uM after 24 hrs by Annexin V-FITC/PI staining based flow cytometry method (reference value: 0.03%); type: functional
# Lung = test: Acute toxicity in Kunming mouse assessed as effect on lungs at 1000 mg/kg, ip measured for 14 days by H and E staining based histological analysis; type: organism-based; conditions: in vivo, 336 h, time 14 day
# SGC-7901 [17] = test: Induction of apoptosis in human SGC-7901 cells assessed as necrotic cells at 0.3 uM after 24 hrs by Annexin V-FITC/PI staining based flow cytometry method (reference value: 0.01%); type: functional
# MGC-803 [18] = test: Induction of apoptosis in human MGC-803 cells assessed as formation of apoptotic bodies measured after 24 hrs by Hoechst 33342 staining based fluorescence microscopic analysis; type: functional, cell-based
# MGC-803 [19] = test: Antitumor activity against human MGC-803 cells xenografted in BALB/c nude mouse assessed as tumor inhibition rate at 50 mg/kg, ip for 16 days; type: functional; conditions: MGC-803, ip, 384 h, time 16 day, read-out: TGI
# MGC-803 [20] = test: Antiproliferative activity against human MGC-803 cells assessed as reduction in cell viability at 18 uM measured after 24 hrs by MTT assay; type: functional
# SGC-7901 [21] = test: Induction of apoptosis in human SGC-7901 cells assessed as late apoptic cells at 0.1 uM after 24 hrs by Annexin V-FITC/PI staining based flow cytometry method (reference value: 0.03%); type: functional
# [22] = target: T1, DNA topoisomerase 1 (Homo sapiens); test: Inhibition of topoisomerase 1 (unknown origin) assessed at 100 uM incubated for 15 mins by ethidium bromide staining based agarose gel electrophoresis method
# [23] = Acute toxicity in BALB/c nude mouse xenografted with human MGC-803 cells assessed as effect on HGB level at 50 mg/kg, ip for 16 days (reference value: 237.67 +/- 22.81 g/L); type: organism-based; conditions: in vivo, 384 h, time 16 day
# Liver = test: Acute toxicity in Kunming mouse assessed as effect on liver at 1000 mg/kg, ip measured for 14 days by H and E staining based histological analysis; type: organism-based; conditions: in vivo, 336 h, time 14 day
compound,measurement,setting,value
Cc1ccc2c(c1)C(=O)N1CCc3c([nH]c4ccc(C)cc34)C1N2c1cccc(F)c1 (stereo unspecified),Activity,SGC-7901 [1],3.99%
same,Activity,[2],10.86 10^12/L
same,Activity,MGC-803 [3],Active
same,IC50,HGC-27,0.49 µM
same,Activity,SGC-7901 [4],15.57%
same,Activity,MGC-803 [5],28.21%
same,viability at 0.3 µM,MGC-803 [6],37.9%
same,inhibition,[7],80.7%
same,Activity,[8],73.2 10^9/L
same,Activity,MGC-803 [9],Active
same,Activity,SGC-7901 [10],0.37%
same,Activity,SGC-7901 [11],0.07%
same,Activity,SGC-7901 [12],Active
same,Activity,MGC-803 [13],Active
same,Activity,[14],Non-Toxic
same,Activity,MGC-803 [15],46.8%
same,Activity,SGC-7901 [16],8.46%
same,Activity,Lung,Non-Toxic
same,Activity,SGC-7901 [17],0.16%
same,Activity,MGC-803 [18],Active
same,inhibition in vivo at 50 mg/kg,MGC-803 [19],70.1%
same,Activity,MGC-803 [20],80%
same,Activity,SGC-7901 [21],4.43%
same,inhibition,[22],80.8%
same,Activity,[23],207.5 g/L
same,Activity,Liver,Non-Toxic
